Measurements taken from US9346839B2.
“Also recorded” adds a separate entry of the source.

What was measured:
[1] = system: mitochondrial permeability transition pore (mPTP); experiment: Mitochondria swelling assay in response to Ca2+; parameters: species or system mice; settings: for calcium-mediated mitochondrial swelling: with calcium
Procedure: Isolation of Brain Mitochondria. Brain from mice without white matter was used for mitochondrial isolation. Brain was homogenized in 9 ml of ice-cold EB buffer (1 mmol EDTA, 1-6 mg/ml BSA) using a Dounce homogenizer until no particles could be seen. Homogenates were centrifuged at 1300×g for 5 minutes. Supernatant from this fraction was carefully laid on top of a 15% PERCOLL solution (10 ml) and then centrifuged at 16000 RPM for 10 minutes. The pellet was carefully mixed with 9 ml of mitochondrial buffer (4.098% D-mannitol, 2.56% sucrose, 0.034% K2HPO4, pH 7.3-7.4) and 200 μl of 1% digitonin. After 5 minutes incubation on ice, the mixture was centrifuged at 8000 RPM for 10 minutes. Mitochondrial pellet was washed once with mitochondrial buffer. Subsequently, the mitochondrial pellet was resuspended in 100 μl of mitochondrial buffer and was used for further experiments.
Mitochondria Swelling Assay. A proper amount of mitochondria was resuspended into 1 ml swelling assay buffer (150 mM KCl, 2 mM KH2PO4, 10 mM HEPES, pH 7.4) and energized by 1 mM glutamate and 1 mM malate. Calcium at varying concentrations was added into the assay buffer to trigger mitochondrial swelling. Mitochondrial permeability transition was determined by studying the rate of change in absorbance at 540 nm via a spectrophotometer.
Mitochondrial Swelling in Response to Ca^2+. Given that the Compounds 4, 8 and 15 could inhibit ABAD activity, it was determined whether these same compounds could decrease mitochondrial permeability transition pore (mPTP) formation.

[2] = Stability of standards under temperature and storage conditions; format: physicochemical; settings: standards in methanol; 25° C. short-term, −20° C. for twenty days
Procedure: Stability. The stability of compounds 4, 8, and 15 was evaluated in ACSF, plasma, and brain matrices under various temperature and storage conditions. Stability at room temperature was studied by analyzing samples at 25° C. for 2 and 4 hours and stability at −80° C. was checked for one month. Samples were analyzed after three (−80° C. to 25° C.) freeze-thaw cycles. Stability studies were performed at three concentrations.
Stability The stability of ABAD compounds were determined under different temperature and storage conditions. 4, 8 and 15 standards were dissolved in methanol and were subjected short-term exposure at 25° C. for and 4 hours long-term storage conditions were assessed at −20° C. for twenty days.

[3] = Solubility in solvents during method development; format: physicochemical
Procedure: Method Development. During the development of a detection method for analytes 4, 8 and 15, multiple solvents were tested to find the optimal mobile phase. […] Acetonitrile was selected for better peak shape and compatibility with serum/brain protein precipitation. Compounds 8 and 15 were chosen as IS, because of their structural similarity. Selected reaction monitoring (SRM) acquisitions were used for sensitivity and extended dynamic range. The cone voltage and collision energy were optimized for 4, 8 and 15 and the IS by continuously infusing a mixture of the two. The optimum cone voltage was 30V.

[4] = system: mAPP mice; experiment: Hippocampal long-term potentiation (LTP) in slices from treated mice; format: in vivo
Procedure: LTP was induced by theta-burst stimulation (TBS) 20 minutes after baseline recordings in hippocampal slices from Non-Tg mice treated with vehicle (n=9 slices from 3 mice), Non-Tg mice treated with Compound 8 (n=9 slices from 3 mice), mAPP mice treated with vehicle (n=8 slices from 3 mice), and mAPP mice treated with Compound 8 (n=8 slices from 3 mice). LTP is expressed as percentage potentiation of baseline (100%) (FIG. 5A).
LTP is expressed as percentage potentiation of baseline (100%) (FIG. 7A).
Synaptic failure in AD is largely reflected by impaired long-term synaptic plasticity in terms of long-term potentiation (LTP). […] Representative field excitatory post-synaptic potentials (fEPSP) waveforms are provided in FIGS. 5A and 7A and the residual potentiation from fEPSP slopes occurring over the last 5 minutes of LTP recording are provided in FIGS. 5B and 7B.

[5] = system: Cells; experiment: Trypan blue dye exclusion (cell viability and toxicity); format: cell-based; settings: 1, 10, 50, 100 μM for 48 to 66 hours, compared to vehicle
Procedure: The trypan blue dye exclusion is commonly used for measuring cell viability and toxicity. 48-66 hours after treatment of ABAD compounds, the trypan blue exclusion experiments were performed. In brief, cells plated in 96-well plates were washed with the balanced salt solution (Hanks-Balanced Salts/HESS) once, then replaced with HBSS including trypan blue solution to the final concentration of 0.2% (Sigma-Aldrich, St. Louis, Mo.), and mixed thoroughly. After standing at room temperature for 5 minutes, the cells were washed with HBSS again and then maintained in the well with HBSS. Both the stained and unstained cells in each well were counted under a microscope (Nikon E400). The calculated percentage of unstained cells represented the percentage of viable cells. Cell viability(%)=total viable cells (unstained)/total cells (stained and unstained)×100.
(§1) Effect of ABAD Inhibitor on Cell Survival and Toxicity. The effect of ABAD inhibitors on cell viability and toxicity was assessed using MTT reduction assay and trypan blue exclusion, which are widely used to assess cell survival and toxicity and to screen for drugs toxicity. Cells were treated with a range of concentrations of ABAD compound (4 and 8) at 1, 10, 50, 100 μM for 48 to 66 hours.

[6] = system: mAPP mice; experiment: Morris water maze learning and memory in AD transgenic mice; format: in vivo; settings: for learning memory: i.p. injection; for swim strategy used to locate the hidden platform: representative swim paths, mAPP mice; for latency to find the hidden platform: treated AD mice compared to untreated AD mice; for number of crossings at the target location / percent of time spent in the target quadrant: treated mAPP mice vs untreated mAPP mice, probe trial
Procedure: Wild-type mice (Non Tg) were also administered Compound 8 (n=5) and vehicle (n=5). Each mouse was given four 60-second trials per day for six consecutive days to find the hidden platform in a Morris water maze.
Wild-type mice were also administered Compound 8 […]. Each mouse was given four 60-second trials per day for seven consecutive days to find the hidden platform in a Morris water maze.
Each mouse was given four 60-second trials per day for six consecutive days to find the hidden platform in a Morris water maze.
In addition, the effect of Compounds 4 and 8 on learning and memory of Alzheimer's Disease (AD) transgenic mice was evaluated. Six month and 9-14 month-old transgenic mice overexpressing a mutated form of the human amyloid precursor protein (mAPP mice) and their wild-type (non Tg) littermates were used in this study. […] Moreover, performance in a spatial MWM trial was evaluated using crossings over the platform area (an index of memory precision; Morris (1984) J. Neurosci. Methods 11:47-60), percent of time spent in target quadrant (an index of memory retrieval; Morris (1984) J. Neurosci. Methods 11:47-60), and swim paths.

[7] = system: Cells; experiment: MTT reduction assay (cell survival and toxicity); format: cell-based; settings: 1, 10, 50, 100 μM for 48 to 66 hours, compared to vehicle
Procedure: Cell Survival and Toxicity Assay. The MTT (3-(4,5-dimethylthiazol-2-yl)-2,5-diphenyltetrazolium bromide) assay, which is widely used to measure cell proliferation and to screen for anticancer drugs, was used for assessing cell viability. Cells were treated with a range of ABAD compounds at 1, 10, 50, and 100 μM for 48 hours and then subjected to MTT reduction assay following the manufacture's instruction.
as §1

SMILES	calcium-mediated mitochondrial swelling [1]	mitochondrial swelling without calcium [1]	stability, variability across all samples [2]	solubility in methanol or acetonitrile [3]	solubility in water [3]	hippocampal long-term potentiation (LTP) [4]	increased percentage of trypan blue-positive cells [5]	learning memory ([6]; 6-months old mAPP mice)	learning memory ([6]; 9-14-months old mAPP mice)	swim strategy used to locate the hidden platform [6]	latency to find the hidden platform [6]	number of crossings at the target location [6]	percent of time spent in the target quadrant [6]	MTT reduction [7]	learning memory ([6]; 9-months old mAPP mice)
COc1ccc2nc(N[C@@H](c3ccc(O)cc3)P(=O)(OC)OC)sc2c1 (racemic) [Compound 8, Dimethyl ((4-hydroxyphenyl)((6-methoxybenzo[d]thiazol-2-yl)amino)methyl)phosphonate]	antagonized calcium-mediated mitochondrial swelling	did not affect mitochondrial swelling without calcium	less than 10 % (RSD)	dissolved readily in methanol or acetonitrile	dissolved partially in water	impairments were diminished; also recorded: protective effects	did not exhibit	improves learning memory	improves learning memory	improvement in the swim strategy	significantly shorter latency	significantly more	significantly more	did not exhibit decreased MTT reduction	–
COC(=O)c1cc([C@H](Nc2nc3ccc(OC)cc3s2)P(=O)(OC)OC)ccc1O [Compound 4, Methyl 5-((dimethoxyphosphoryl)((6-methoxybenzo[d]thiazol-2-yl)amino)methyl)-2-hydroxybenzoate]	antagonized calcium-mediated mitochondrial swelling	did not affect mitochondrial swelling without calcium	less than 10 % (RSD)	dissolved readily in methanol or acetonitrile	dissolved partially in water	impairments were diminished; also recorded: protective effects	did not exhibit	–	–	improvement in the swim strategy	significantly shorter latency	significantly more	significantly more	did not exhibit decreased MTT reduction	improves learning memory
COc1ccc2nc(N[C@@H](c3ccc(F)cc3)P(=O)(OC)OC)sc2c1 [Compound 15, Dimethyl ((4-fluorophenyl)((6-methoxybenzo[d]thiazol-2-yl)amino)methyl)phosphonate]	antagonized calcium-mediated mitochondrial swelling	did not affect mitochondrial swelling without calcium	less than 10 % (RSD)	dissolved readily in methanol or acetonitrile	dissolved partially in water	–	–	–	–	–	–	–	–	–	–
